Results reported in article PMC10808981, “Synthesis and structure–activity relationships of aryl fluorosulfate-based inhibitors as novel antitubercular agents” (Bioorganic & Medicinal Chemistry Letters, 2024).
Converted amounts (≈) assume the structure as drawn.

Tests used:
Mtb H37Rv = assay: MIC determination in Mtb H37Rv, Microdilution Alamar Blue Assay (MABA); type: cell-based, Mycobacterium tuberculosis; settings: for MIC: Mtb H37Rv, MABA, 7 days
[1] = HEK293T cytotoxicity assay (Cell Titer-Glo); type: cell-based; settings: human, HEK293T cells; HEK293T, 3 days
Method: HEK293T (ATCC) were grown in DMEM (Gibco Cat # 11965-092) supplemented with 10% heat-inactivated FBS, Pen Strep (Gibco) 1X in a 5% CO2 humidified atmosphere at 37◦C. Cells were washed once with DPBS 1X (Gibco), incubated for less than 5 minutes at room temperature in TrypLE solution (Gibco), washed once in propagation medium to remove trypsin, and counted with Trypan Blue. 5 µL of cell suspension ([…]) was dispensed into 1536-well plates containing serial 3-fold drug dilution ranging from 40 µM to 2 nM and incubated for 3 days in a 5% CO2 humidified atmosphere at 37 ◦C. Cell Titer-Glo® Luminescent Cell Viability Assay (Promega) reagent was diluted 1:1 with water and then 2 µL were added to plates. Luminescence was measured in a PHERAStar plate reader (BMG Labtech) and data normalized to negative control (DMSO) minus inhibitor (Puromycin 10 µM). Dose-response curves were fit using the Smart Fit function in Genedata Screener Analyzer (v16.0.8).

in vitro = settings: human
[2] = Mycobacterium tuberculosis, H37RV, 168 h

## O=S(=O)(F)Oc1ccc(OCc2cc(F)c(-n3cncn3)c(F)c2)cc1 [Compound 3 g, 4-((3,5-difluoro-4-(1H-1,2,4-triazol-1-yl)benzyl)oxy)phenyl sulfurofluoridate]
Mtb H37Rv; [2]
  MIC: 10 µM (≈ 3.85 µg/mL)
[1]
  CC50 at 72 h: 34.8 µM
In vitro
  CC50: > 40 µM

## O=S(=O)(F)Oc1ccc(OCc2cc(F)c(-n3cncn3)cc2F)cc1 [Compound 3 h, 4-((2,5-difluoro-4-(1H-1,2,4-triazol-1-yl)benzyl)oxy)phenyl sulfurofluoridate]
Mtb H37Rv; [2]
  MIC: 1.25 µM (≈ 0.482 µg/mL)
[1]
  CC50 at 72 h: 21.6 µM
In vitro
  CC50 at 72 h: 29.5 µM

## O=S(=O)(F)Oc1ccc(OCc2c(F)cc(-n3nccn3)cc2F)cc1 [Compound 3 k, 4-((2,6-difluoro-4-(2H-1,2,3-triazol-2-yl)benzyl)oxy)phenyl sulfurofluoridate]
Mtb H37Rv; [2]
  MIC: 1.23 µM (≈ 0.474 µg/mL)
[1]
  CC50 at 3 days: > 40 µM
In vitro
  CC50: > 40 µM

## O=S(=O)(F)Oc1ccc(OCc2c(F)cc(-n3ccnn3)cc2F)cc1 [Compound 3 l, 4-((2,6-difluoro-4-(1H-1,2,3-triazol-1-yl)benzyl)oxy)phenyl sulfurofluoridate]
Mtb H37Rv; [2]
  MIC: 0.16 µM (≈ 0.0617 µg/mL)
[1]
  CC50 at 72 h: 27.7 µM
In vitro
  CC50 at 72 h: 17 µM

## O=S(=O)(F)Oc1ccc(OCc2ccc(-n3cncn3)c(F)c2)cc1 [Compound 3e, 4-((3-fluoro-4-(1H-1,2,4-triazol-1-yl)benzyl)oxy)phenyl sulfurofluoridate]
Mtb H37Rv; [2]
  MIC: 2.5 µM (≈ 0.918 µg/mL)
[1]
  CC50 at 72 h: 16.8 µM
In vitro
  CC50 at 72 h: 17.6 µM

## O=S(=O)(F)Oc1ccc(OCc2ccc(-n3cncn3)c(F)c2F)cc1 [Compound 3f, 4-((2,3-difluoro-4-(1H-1,2,4-triazol-1-yl)benzyl)oxy)phenyl sulfurofluoridate]
Mtb H37Rv; [2]
  MIC: 1.25 µM (≈ 0.482 µg/mL)
[1]
  CC50 at 72 h: 18.8 µM
In vitro
  CC50 at 72 h: 22.4 µM

## N#Cc1cc(-n2cncn2)cc(F)c1COc1ccc(OS(=O)(=O)F)cc1 [Compound 3j, 4-((2-cyano-6-fluoro-4-(1H-1,2,4-triazol-1-yl)benzyl)oxy)phenyl sulfurofluoridate]
Mtb H37Rv
  MIC: 5 µM (≈ 1.96 µg/mL)
Mtb H37Rv; [2]
  MIC: 5 µM (≈ 1.96 µg/mL)
[1]
  CC50 at 3 days: > 40 µM
In vitro
  CC50: > 40 µM

## O=S(=O)(F)Oc1ccc(OCc2c(F)cc(-n3cnnn3)cc2F)cc1 [Compound 19 g, 4-((2,6-difluoro-4-(1H-tetrazol-1-yl)benzyl)oxy)phenyl sulfurofluoridate]
Mtb H37Rv; [2]
  MIC: 0.45 µM (≈ 0.174 µg/mL)
[1]
  CC50 at 72 h: 13.2 µM
In vitro
  CC50 at 72 h: 12.1 µM

## O=S(=O)(F)Oc1ccc(OCc2c(F)cc(-c3nnn[nH]3)cc2F)cc1 [Compound 19 h, 4-((2,6-difluoro-4-(1H-tetrazol-5-yl)benzyl)oxy)phenyl sulfurofluoridate]
Mtb H37Rv; [2]
  MIC: 5 µM (≈ 1.93 µg/mL)
[1]
  CC50 at 3 days: > 40 µM
In vitro
  CC50: > 40 µM

## O=S(=O)(F)Oc1ccc(OCc2c(F)cc(-c3nnc[nH]3)cc2F)cc1 [Compound 19a, 4-((2,6-difluoro-4-(1H-1,2,4-triazol-3-yl)benzyl)oxy)phenylsulfurofluoridate]
Mtb H37Rv
  MIC: 0.9 µM (≈ 0.347 µg/mL)
Mtb H37Rv; [2]
  MIC: < 1 µM
[1]
  CC50 at 72 h: 14.7 µM
In vitro
  CC50 at 72 h: 19.3 µM

## Cn1cnc(-c2cc(F)c(COc3ccc(OS(=O)(=O)F)cc3)c(F)c2)n1 [Compound 19b, 4-((2,6-difluoro-4-(1-methyl-1H-1,2,4-triazol-3-yl)benzyl)oxy)phenyl sulfurofluoridate]
Mtb H37Rv; [2]
  MIC: 1.25 µM (≈ 0.499 µg/mL)
In vitro
  CC50: > 40 µM

## O=S(=O)(F)Oc1ccc(OCc2c(F)cc(-c3ccn[nH]3)cc2F)cc1 [Compound 19c, 4-((2,6-difluoro-4-(1H-pyrazol-5-yl)benzyl)oxy)phenyl sulfurofluoridate]
Mtb H37Rv; [2]
  MIC: 0.84 µM (≈ 0.323 µg/mL)
[1]
  CC50 at 72 h: 31.7 µM
In vitro
  CC50 at 72 h: 18.5 µM

## O=S(=O)(F)Oc1ccc(OCc2c(F)cc(-c3ncc[nH]3)cc2F)cc1 [Compound 19d, 4-((2,6-difluoro-4-(1H-imidazol-2-yl)benzyl)oxy)phenyl sulfurofluoridate]
Mtb H37Rv; [2]
  MIC: 0.3 µM (≈ 0.115 µg/mL)
[1]
  CC50 at 3 days: > 40 µM
In vitro
  CC50 at 72 h: 30.1 µM

## Cn1ccnc1-c1cc(F)c(COc2ccc(OS(=O)(=O)F)cc2)c(F)c1 [Compound 19e, 4-((2,6-difluoro-4-(1-methyl-1H-imidazol-2-yl)benzyl)oxy)phenyl sulfurofluoridate]
Mtb H37Rv; [2]
  MIC: 1.25 µM (≈ 0.498 µg/mL)
[1]
  CC50 at 72 h: 26 µM
In vitro
  CC50 at 72 h: 13.7 µM

## O=S(=O)(F)Oc1ccc(OCc2c(F)cc(-n3ccnc3)cc2F)cc1 [Compound 19f, 4-((2,6-difluoro-4-(1H-imidazol-1-yl)benzyl)oxy)phenyl sulfurofluoridate]
Mtb H37Rv; [2]
  MIC: 0.37 µM (≈ 0.142 µg/mL)
[1]
  CC50 at 72 h: 9.65 µM
  CC50 at 3 days: < 10 µM
In vitro
  CC50: < 10 µM
  CC50 at 72 h: 8.63 µM

## O=S(=O)(F)Oc1ccc(OCc2c(F)cc(-c3ncon3)cc2F)cc1 [Compound 19i, 4-((2,6-difluoro-4-(1,2,4-oxadiazol-3-yl)benzyl)oxy)phenyl sulfurofluoridate]
Mtb H37Rv
  MIC: 0.62 µM (≈ 0.24 µg/mL)
Mtb H37Rv; [2]
  MIC: < 1 µM
[1]
  CC50 at 3 days: > 40 µM
In vitro
  CC50: > 40 µM

## O=S(=O)(F)Oc1ccc(OCc2c(F)cc(-c3cnoc3)cc2F)cc1 [Compound 19j, 4-((2,6-difluoro-4-(isoxazol-4-yl)benzyl)oxy)phenyl sulfurofluoridate]
Mtb H37Rv
  MIC: 0.78 µM (≈ 0.301 µg/mL)
Mtb H37Rv; [2]
  MIC: < 1 µM
[1]
  CC50 at 72 h: 23.8 µM
In vitro
  CC50 at 72 h: 6.99 µM

## N#Cc1ncn(-c2cc(F)c(COc3ccc(OS(=O)(=O)F)cc3)c(F)c2)n1 [Compound 20 g, 4-((4-(3-cyano-1H-1,2,4-triazol-1-yl)-2,6-difluorobenzyl)oxy)phenyl sulfurofluoridate]
Mtb H37Rv; [2]
  MIC: 0.45 µM (≈ 0.185 µg/mL)
In vitro
  CC50 at 72 h: 10.3 µM

## NC(=O)c1ncn(-c2cc(F)c(COc3ccc(OS(=O)(=O)F)cc3)c(F)c2)n1 [Compound 20 k, 4-((4-(3-carbamoyl-1H-1,2,4-triazol-1-yl)-2,6-difluorobenzyl)oxy)phenyl sulfurofluoridate]
Mtb H37Rv; [2]
  MIC: 0.17 µM (≈ 0.0728 µg/mL)
[1]
  CC50 at 3 days: > 40 µM
In vitro
  CC50: > 40 µM

## NS(=O)(=O)c1ncn(-c2cc(F)c(COc3ccc(OS(=O)(=O)F)cc3)c(F)c2)n1 [Compound 20 l, 4-((2,6-difluoro-4-(3-sulfamoyl-1H-1,2,4-triazol-1-yl)benzyl)oxy)phenyl sulfurofluoridate]
Mtb H37Rv; [2]
  MIC: 0.47 µM (≈ 0.218 µg/mL)
In vitro
  CC50: > 40 µM

## Cc1ncn(-c2cc(F)c(COc3ccc(OS(=O)(=O)F)cc3)c(F)c2)n1 [Compound 20a, 4-((2,6-difluoro-4-(3-methyl-1H-1,2,4-triazol-1-yl)benzyl)oxy)phenyl sulfurofluoridate]
Mtb H37Rv; [2]
  MIC: 0.3 µM (≈ 0.12 µg/mL)
[1]
  CC50 at 72 h: 17.1 µM
In vitro
  CC50 at 72 h: 16.3 µM

## CCc1ncn(-c2cc(F)c(COc3ccc(OS(=O)(=O)F)cc3)c(F)c2)n1 [Compound 20b, 4-((4-(3-ethyl-1H-1,2,4-triazol-1-yl)-2,6-difluorobenzyl)oxy)phenyl sulfurofluoridate]
Mtb H37Rv; [2]
  MIC: 0.6 µM (≈ 0.248 µg/mL)
[1]
  CC50 at 3 days: > 40 µM
In vitro
  CC50 at 72 h: 5.8 µM

## CC(C)c1ncn(-c2cc(F)c(COc3ccc(OS(=O)(=O)F)cc3)c(F)c2)n1 [Compound 20c, 4-((2,6-difluoro-4-(3-isopropyl-1H-1,2,4-triazol-1-yl)benzyl)oxy)phenyl sulfurofluoridate]
Mtb H37Rv; [2]
  MIC: 0.6 µM (≈ 0.256 µg/mL)
[1]
  CC50 at 72 h: 16.7 µM
In vitro
  CC50 at 72 h: 12.4 µM

## CC(C)(C)c1ncn(-c2cc(F)c(COc3ccc(OS(=O)(=O)F)cc3)c(F)c2)n1 [Compound 20d, 4-((4-(3-(tert-butyl)-1H-1,2,4-triazol-1-yl)-2,6-difluorobenzyl)oxy)phenyl sulfurofluoridate]
Mtb H37Rv; [2]
  MIC: 1.2 µM (≈ 0.53 µg/mL)
[1]
  CC50 at 72 h: 13.7 µM
In vitro
  CC50 at 72 h: 6.9 µM

## Cc1nc(C)n(-c2cc(F)c(COc3ccc(OS(=O)(=O)F)cc3)c(F)c2)n1 [Compound 20e, 4-((4-(3,5-dimethyl-1H-1,2,4-triazol-1-yl)-2,6-difluorobenzyl)oxy)phenyl sulfurofluoridate]
Mtb H37Rv; [2]
  MIC: 0.23 µM (≈ 0.0951 µg/mL)
[1]
  CC50 at 72 h: 14.3 µM
In vitro
  CC50 at 72 h: 8.1 µM

## COc1ncn(-c2cc(F)c(COc3ccc(OS(=O)(=O)F)cc3)c(F)c2)n1 [Compound 20f, 4-((2,6-difluoro-4-(3-methoxy-1H-1,2,4-triazol-1-yl)benzyl)oxy)phenyl sulfurofluoridate]
Mtb H37Rv; [2]
  MIC: 0.6 µM (≈ 0.249 µg/mL)
[1]
  CC50 at 3 days: > 40 µM
In vitro
  CC50: > 40 µM

## CS(=O)(=O)c1ncn(-c2cc(F)c(COc3ccc(OS(=O)(=O)F)cc3)c(F)c2)n1 [Compound 20i, 4-((2,6-difluoro-4-(3-(methylsulfonyl)-1H-1,2,4-triazol-1-yl)benzyl)oxy)phenyl sulfurofluoridate]
Mtb H37Rv; [2]
  MIC: 0.4 µM (≈ 0.185 µg/mL)
[1]
  CC50 at 72 h: 17.2 µM
In vitro
  CC50 at 72 h: 9.3 µM

## O=C(O)c1ncn(-c2cc(F)c(COc3ccc(OS(=O)(=O)F)cc3)c(F)c2)n1 [Compound 20j, 1-(3,5-difluoro-4-((4-((fluorosulfonyl)oxy)phenoxy)methyl)phenyl)-1H-1,2,4-triazole-3-carboxylic acid]
Mtb H37Rv; [2]
  MIC: 1.25 µM (≈ 0.537 µg/mL)
[1]
  CC50 at 3 days: > 40 µM
In vitro
  CC50: > 40 µM

## CS(=O)(=O)Nc1ncn(-c2cc(F)c(COc3ccc(O)cc3)c(F)c2)n1 [Compound 21 g]
Mtb H37Rv
  anti-TB activity against Mtb (in words): no activity
  MIC: > 10 µM

## CN(c1ncn(-c2cc(F)c(COc3ccc(OS(=O)(=O)F)cc3)c(F)c2)n1)S(C)(=O)=O [Compound 21c, 4-((2,6-difluoro-4-(3-(N-methylmethylsulfonamido)-1H-1,2,4-triazol-1-yl)benzyl)oxy)phenyl sulfurofluoridate]
Mtb H37Rv; [2]
  MIC: 0.31 µM (≈ 0.153 µg/mL)
In vitro
  CC50 at 72 h: 15.3 µM

## CCS(=O)(=O)Nc1ncn(-c2cc(F)c(COc3ccc(OS(=O)(=O)F)cc3)c(F)c2)n1 [Compound 21d, 4-((4-(3-(ethylsulfonamido)-1H-1,2,4-triazol-1-yl)-2,6-difluorobenzyl)oxy)phenyl sulfurofluoridate]
Mtb H37Rv; [2]
  MIC: 0.08 µM (≈ 0.0394 µg/mL)
In vitro
  CC50: > 40 µM
